Reference: publication PMC12196486, “Search for Antiviral Preparations in Series of New Derivatives of N-Substituted Piperidines” (Molecules, 2025)
Values after ≈ are worked out from the molar mass of the structure shown. “Also recorded” adds a separate entry of the source. Where a name gives a salt, the structure may show the parent alone. Read-outs that look alike come from different tables or passages of the source.

Tests used:
[1] = tested on: influenza A/Swine/Iowa/30 (H1N1) virus; format: cell-based; settings: for Antiviral activity relative to oseltamivir (Tamiflu): concentrations corresponding to 1/2 of CC50; for Efficacy relative to commercially available oseltamivir: at similar or lower concentrations
[2] = Cytotoxicity in vitro, MTT test on MDCK cell culture; settings: dog
in vitro = settings: dog

CCCN1CCC(O)(C(=O)O)CC1 [3b, Hydrochloride of 1-propyl-4-carboxy-4-hydroxypiperidine]
Titre in HAU ([1]; 0.15 mg/mL, PC titre 5.0 ± 0): 5.0 ± 0 log2 | Titre in HAU ([1]; 0.30 mg/mL, PC titre 5.0 ± 0): 5.0 ± 0 log2 | Titre in HAU ([1]; 0.59 mg/mL, PC titre 5.0 ± 0): 5.0 ± 0 log2 | Titre in HAU ([1]; 1.19 mg/mL, PC titre 5.0 ± 0): 5.0 ± 0 log2 | Titre in HAU ([1]; 2.38 mg/mL, PC titre 5.0 ± 0): 4.4 ± 0.6 log2 | Reduction of virus replication ([1]; 4.75 mg/mL (maximum tested concentration)): 1.0 log2 | Titre in HAU ([1]; 4.75 mg/mL, PC titre 5.0 ± 0): 4.0 ± 0 log2 | Antiviral activity relative to oseltamivir (Tamiflu) [1]: slightly inferior; also recorded: significantly lower antiviral activity | CC50 at 72 h [2]: 9500 ± 364 µg/mL

O=C(OC1(C(=O)O)CCN(Cc2ccccc2)CC1)C1CC1 [5c, Hydrochloride of 1-benzyl-4-cyclopropanoyloxy-piperidine-4-carboxylic acid]
Titre in HAU ([1]; 0.058 mg/mL, PC titre 5.0 ± 0): 5.0 ± 0 log2 | Titre in HAU ([1]; 0.116 mg/mL, PC titre 5.0 ± 0): 5.0 ± 0 log2 | Titre in HAU ([1]; 0.231 mg/mL, PC titre 5.0 ± 0): 5.0 ± 0 log2 | Titre in HAU ([1]; 0.463 mg/mL, PC titre 5.0 ± 0): 5.0 ± 0 log2 | Titre in HAU ([1]; 0.925 mg/mL, PC titre 5.0 ± 0): 4.4 ± 0.6 log2 | Suppression of virus replication compared to the control group ([1]; 1.85 mg/mL (maximum investigated concentration)): 1.2 log2 | Titre in HAU ([1]; 1.850 mg/mL, PC titre 5.0 ± 0): 3.8 ± 1.1 log2 | Antiviral effect at the other concentrations tested ([1]; concentrations below 1.85 mg/mL): No statistically significant antiviral effect | Level of antiviral activity relative to rimantadine ([1]; concentrations equivalent to 1/2 CC50): comparable to that of rimantadine | CC50 at 72 h [2]: 3700 ± 189 µg/mL

O=C(OC1(C(=O)O)CCN(CCc2ccccc2)CC1)C1CC1 [5d, Hydrochloride of 1-(2-phenylethyl)-4-cyclopropanoyloxy-piperidine-4-carboxylic acid]
Titre in HAU ([1]; 0.0025 mg/mL, PC titre 6.0 ± 0): 6.0 ± 0 log2 | Titre in HAU ([1]; 0.0050 mg/mL, PC titre 6.0 ± 0): 6.0 ± 0 log2 | Titre in HAU ([1]; 0.0100 mg/mL, PC titre 6.0 ± 0): 6.0 ± 0 log2 | Titre in HAU ([1]; 0.0200 mg/mL, PC titre 6.0 ± 0): 6.0 ± 0 log2 | Reduction of virus replication ([1]; 0.04 mg/mL): 1.2 log2 | Titre in HAU ([1]; 0.0400 mg/mL, PC titre 6.0 ± 0): 4.8 ± 0.5 log2 | Reduction of virus replication ([1]; 0.08 mg/mL): 2.0 log2 | Titre in HAU ([1]; 0.0800 mg/mL, PC titre 6.0 ± 0): 4.0 ± 0 log2 | Antiviral activity relative to oseltamivir (Tamiflu) [1]: slightly inferior | CC50 at 72 h [2]: 160 ± 6 µg/mL

CC(N)C12CC3CC(CC(C3)C1)C2 (stereo not shown) [Rimantadine, reference compound]
Titre in HAU ([1]; 0.003 mg/mL, PC titre 6.0 ± 0): 4.2 ± 0.4 log2 | Titre in HAU ([1]; 0.005 mg/mL, PC titre 6.0 ± 0): 4.2 ± 0.4 log2 | Titre in HAU ([1]; 0.010 mg/mL, PC titre 6.0 ± 0): 4.2 ± 0.4 log2 | Titre in HAU ([1]; 0.020 mg/mL, PC titre 6.0 ± 0): 4.2 ± 0.4 log2 | Titre in HAU ([1]; 0.040 mg/mL, PC titre 6.0 ± 0): 4.2 ± 0.4 log2 | Titre in HAU ([1]; 0.080 mg/mL, PC titre 6.0 ± 0): 4.2 ± 0.4 log2 | CC50 at 72 h (in vitro): 160 ± 11 µg/mL (≈ 892 µM)

CCOC(=O)C1=C[C@@H](OC(CC)CC)[C@H](NC(C)=O)[C@@H](N)C1 [Tamiflu, oseltamivir, reference compound]
Titre in HAU ([1]; 0.01 mg/mL, PC titre 5.0 ± 0): 4.0 ± 0 log2 | Titre in HAU ([1]; 0.02 mg/mL, PC titre 5.0 ± 0): 4.0 ± 0 log2 | Titre in HAU ([1]; 0.04 mg/mL, PC titre 5.0 ± 0): 3.0 ± 0 log2 | Titre in HAU ([1]; 0.08 mg/mL, PC titre 5.0 ± 0): 3.0 ± 0 log2 | Titre in HAU ([1]; 0.17 mg/mL, PC titre 5.0 ± 0): 2.4 ± 0.5 log2 | Titre in HAU ([1]; 0.33 mg/mL, PC titre 5.0 ± 0): 2.4 ± 0.5 log2 | Reduction of viral load ([1]; 0.02 and 0.01 mg/mL): 1.0 log2 | Reduction of viral load ([1]; 0.08 and 0.04 mg/mL): 2.0 log2 | Reduction in the reproduction of 100 infectious doses of the virus ([1]; 0.33 and 0.17 mg/mL): 2.6 log2 | CC50 at 72 h [2]: 660 ± 91 µg/mL (≈ 2110 µM)

O=C(OC1CCN(Cc2ccccc2)CC1)c1ccc(C(F)(F)F)cc1 [compound 8, Hydrochloride of 1-benzyl-4-trifluoromethylbenzoyloxy-piperidine]
Titre in HAU ([1]; 0.0011 mg/mL, PC titre 6.0 ± 0): 6.0 ± 0 log2 | Titre in HAU ([1]; 0.0022 mg/mL, PC titre 6.0 ± 0): 6.0 ± 0 log2 | Titre in HAU ([1]; 0.0044 mg/mL, PC titre 6.0 ± 0): 6.0 ± 0 log2 | Titre in HAU ([1]; 0.0088 mg/mL, PC titre 6.0 ± 0): 5.0 ± 0 log2 | Titre in HAU ([1]; 0.0175 mg/mL, PC titre 6.0 ± 0): 5.0 ± 0 log2 | Reduction of viral load ([1]; 0.035 mg/mL): 2.0 log2 | Titre in HAU ([1]; 0.0350 mg/mL, PC titre 6.0 ± 0): 4.0 ± 0 log2 | Reduction of viral load ([1]; 0.0175 and 0.0088 mg/mL): 1.0 log2 | Efficacy relative to commercially available oseltamivir [1]: comparable efficacy | Antiviral activity relative to oseltamivir (Tamiflu) [1]: slightly inferior | CC50 at 72 h [2]: 70 ± 5 µg/mL

O=C(ON=C1CCN(Cc2ccccc2)CC1)c1c(F)cccc1F [compound 11, Hydrochloride of 1-benzyl-4-(2,6-difluoro-benzoyloxymino) piperidine]
Titre in HAU ([1]; 0.0020 mg/mL, PC titre 6.0 ± 0): 6.0 ± 0 log2 | Titre in HAU ([1]; 0.0041 mg/mL, PC titre 6.0 ± 0): 6.0 ± 0 log2 | Titre in HAU ([1]; 0.0081 mg/mL, PC titre 6.0 ± 0): 6.0 ± 0 log2 | Titre in HAU ([1]; 0.0163 mg/mL, PC titre 6.0 ± 0): 6.0 ± 0 log2 | Titre in HAU ([1]; 0.0325 mg/mL, PC titre 6.0 ± 0): 4.0 ± 0 log2 | Titre in HAU ([1]; 0.0650 mg/mL, PC titre 6.0 ± 0): 4.0 ± 0 log2 | Inhibition of replication of 100 infectious doses compared to the control group ([1]; 0.0650 and 0.0325 mg/mL): 2.0 log2 | Efficacy relative to commercially available oseltamivir [1]: comparable efficacy | Antiviral activity relative to oseltamivir (Tamiflu) [1]: slightly inferior | CC50 at 72 h [2]: 130 ± 2 µg/mL
